Data published in PubChem BioAssay (NCI).
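Results reflect a 48-hour exposure of cells in 96-well plates to compound at five concentrations. TGI: total growth inhibition.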 Where a SMILES comes first, the peptide text is derived from it. [ ]: non-standard residue; d: D form. The star is where a group is joined. ξ: configuration not given here. NMeY = CN[C@@H](Cc1ccc(O)cc1)C(=O)O; Cbz = O=C(OCc1ccccc1)*; ξA = CC(N)C(=O)O

What was measured:
Experiment in all cases: inhibition of tumour cell growth, NCI panel, 48 h
HL-60(TB) leukemia = tested on: HL-60(TB) leukemia
IGROV1 ovarian = tested on: IGROV1 ovarian
MOLT-4 leukemia = tested on: MOLT-4 leukemia
ACHN renal = tested on: ACHN renal
RPMI-8226 leukemia = tested on: RPMI-8226 leukemia
SNB-75 CNS = tested on: SNB-75 CNS
SF-539 CNS = tested on: SF-539 CNS
NCI-H226 lung = tested on: NCI-H226 lung

Compound | TGI (HL-60(TB) leukemia) | TGI (IGROV1 ovarian) | TGI (MOLT-4 leukemia) | TGI (ACHN renal) | TGI (RPMI-8226 leukemia) | TGI (SNB-75 CNS) | TGI (SF-539 CNS) | TGI (NCI-H226 lung)
O=C1/C(=C/c2cccc(Oc3ccccc3)c2)N=C(c2ccccc2)N1c1nc2ccc(Sc3ccccc3)cc2[nH]1 | 49.9 µM | > 100 µM | > 100 µM | > 100 µM | 56.5 µM | 60.4 µM | – | –
O=C1c2cc([N+](=O)[O-])ccc2NC2C(O)c3ccccc3N12 (centres undefined) | – | 75.3 µM | 49.1 µM | 80.7 µM | 44.1 µM | 44.8 µM | 74.7 µM | 82.9 µM
COc1cc(C(=O)Nc2nnc(S(N)(=O)=O)s2)cc(OC)c1OC | > 100 µM | – | > 100 µM | > 100 µM | > 100 µM | – | > 100 µM | > 100 µM
O=c1oc2ccccc2cc1-c1nc2ccc([N+](=O)[O-])cc2o1 | > 100 µM | > 100 µM | > 100 µM | 80.9 µM | > 100 µM | > 100 µM | > 100 µM | > 100 µM
O=C(Cc1nc2ccc(C(=O)c3ccccc3)cc2[nH]c1=O)C(=O)Nc1ccccc1[N+](=O)[O-] | > 100 µM | > 100 µM | – | > 100 µM | > 100 µM | > 100 µM | > 100 µM | > 100 µM
C#CC(C)(C)Oc1cc(OC)c2c(=O)c3ccccc3n(C)c2c1 | 28.7 µM | 45 µM | 22.3 µM | 64.6 µM | 25 µM | 70.1 µM | 76 µM | 36.4 µM
CC(C)=CC(=O)O[C@@H]1CC(C)(C)CC2C3=CCC4[C@]56CC[C@](O)(OC5)C(C)(C)C6CC[C@@]4(C)C3(C)CC[C@]21C(=O)O (some centres undefined) | > 100 µM | > 100 µM | > 100 µM | 82.8 µM | > 100 µM | – | > 100 µM | > 100 µM
Cn1c(N)c(/C=N/NC(=O)CC#N)c(=O)n(C)c1=O | – | > 100 µM | > 100 µM | > 100 µM | > 100 µM | > 100 µM | – | > 100 µM
O=C1CSC2(CC(/C=C/C=C/c3ccccc3)=NN2c2cccc(S(=O)(=O)O)c2)N1c1nc2ccccc2s1 (centres undefined) | > 100 µM | > 100 µM | 67.1 µM | > 100 µM | 55 µM | > 100 µM | > 100 µM | > 100 µM
O=C(Cn1c2ccc(Br)cc2c2nc3ccccc3nc21)NC1CCCCC1 | – | > 100 µM | > 100 µM | > 100 µM | > 100 µM | > 100 µM | – | > 100 µM
C=C(CCOC)CCC1CCCCC(=C)C1=O (centres undefined) | > 100 µM | > 100 µM | > 100 µM | > 100 µM | > 100 µM | > 100 µM | – | > 100 µM
CC1(C)CC(=O)C(/C=N/c2nc(-c3ccc(Br)cc3)cs2)=C(O)C1 | > 100 µM | > 100 µM | > 100 µM | > 100 µM | – | 72.8 µM | 61 µM | > 100 µM
CCCCC[C@H](O)[C@H](C)C=C1SCCCS1 | > 100 µM | > 100 µM | > 100 µM | > 100 µM | > 100 µM | > 100 µM | – | > 100 µM
O=C1c2ccccc2NC2C(O)c3ccccc3N12 (centres undefined) | – | > 100 µM | 58.7 µM | > 100 µM | 54.3 µM | > 100 µM | > 100 µM | > 100 µM
C=CCc1c(O)c2ccccc2[nH]c1=O | > 100 µM | > 100 µM | > 100 µM | > 100 µM | > 100 µM | > 100 µM | > 100 µM | > 100 µM
O=C1CCC2(CC1)Cc1ccccc1C2O (centres undefined) | > 100 µM | > 100 µM | > 100 µM | > 100 µM | – | > 100 µM | > 100 µM | > 100 µM
CN(C)c1ccc(/C=C(\NC(=O)c2ccccc2)C(=O)Nc2ccccc2C(=O)NN2C(=O)CSC2c2ccc(N(C)C)cc2)cc1 (centres undefined) | > 100 µM | > 100 µM | > 100 µM | > 100 µM | > 100 µM | > 100 µM | > 100 µM | > 100 µM
Cc1cnc(Cl)nc1C(C#N)c1nc2ccccc2n1C (centres undefined) | – | > 100 µM | > 100 µM | > 100 µM | > 100 µM | 69.3 µM | 71.3 µM | > 100 µM
N#Cc1c(N)c(-c2ccc(Cl)cc2)c(F)c2ccccc12 | – | > 100 µM | – | > 100 µM | > 100 µM | > 100 µM | > 100 µM | > 100 µM
CCOC(=O)C1C/C(C)=C(/C)SCCCS1 (centres undefined) | 54.6 µM | > 100 µM | > 100 µM | > 100 µM | > 100 µM | – | > 100 µM | > 100 µM
CCCCCCCCCCCCC(=O)NCC(=O)NC(Cc1ccccc1)C(=O)Oc1ccc([N+](=O)[O-])cc1 (centres undefined) | > 100 µM | > 100 µM | – | > 100 µM | – | > 100 µM | > 100 µM | > 100 µM
Cc1[nH]c(=O)nc(N/N=C/c2ccc(Cl)c(Cl)c2)c1C(=O)Nc1ccc(Cl)c(Cl)c1 | > 78.2 µM | > 39.2 µM | > 100 µM | > 53.1 µM | > 100 µM | 35.3 µM | 41.2 µM | > 52.2 µM
CCOC(=O)CCC(NC(=O)OCc1ccccc1)C(=O)NNC(=O)OC(C)(C)C (centres undefined) | > 100 µM | > 100 µM | > 100 µM | > 100 µM | > 100 µM | > 100 µM | > 100 µM | –
Cc1cs/c(=N\C(P(=O)(O)O)P(=O)(O)O)n1C | > 100 µM | > 100 µM | > 100 µM | > 100 µM | > 100 µM | > 100 µM | > 100 µM | > 100 µM
CC(=O)Oc1ccc2cc(Oc3ccc(Cl)cc3)c(=O)oc2c1 | > 100 µM | > 100 µM | – | > 100 µM | > 100 µM | > 100 µM | 82.7 µM | > 100 µM
COc1ccc(C[C@@H](C(=O)NCC(N)=O)N(C)C(=O)[C@@H]2CCCN2C(=O)[C@H](CC(C)C)NC(=O)C(C)NC(=O)OCc2ccccc2)cc1 (some centres undefined) (Cbz-[ξA]LP[NMeY](Me)G-NH2) | > 100 µM | > 100 µM | > 100 µM | > 100 µM | > 100 µM | > 100 µM | > 100 µM | > 100 µM
